{"source": "patent US10040781B2", "about": "“Tank-binding kinase inhibitor compounds” (Gilead Sciences, Inc., priority 2014, dated 2018)"}
{"biological_target": "hJAK2 (Homo sapiens (Human), UniProt O60674)", "sequence (O60674 whole entry)": "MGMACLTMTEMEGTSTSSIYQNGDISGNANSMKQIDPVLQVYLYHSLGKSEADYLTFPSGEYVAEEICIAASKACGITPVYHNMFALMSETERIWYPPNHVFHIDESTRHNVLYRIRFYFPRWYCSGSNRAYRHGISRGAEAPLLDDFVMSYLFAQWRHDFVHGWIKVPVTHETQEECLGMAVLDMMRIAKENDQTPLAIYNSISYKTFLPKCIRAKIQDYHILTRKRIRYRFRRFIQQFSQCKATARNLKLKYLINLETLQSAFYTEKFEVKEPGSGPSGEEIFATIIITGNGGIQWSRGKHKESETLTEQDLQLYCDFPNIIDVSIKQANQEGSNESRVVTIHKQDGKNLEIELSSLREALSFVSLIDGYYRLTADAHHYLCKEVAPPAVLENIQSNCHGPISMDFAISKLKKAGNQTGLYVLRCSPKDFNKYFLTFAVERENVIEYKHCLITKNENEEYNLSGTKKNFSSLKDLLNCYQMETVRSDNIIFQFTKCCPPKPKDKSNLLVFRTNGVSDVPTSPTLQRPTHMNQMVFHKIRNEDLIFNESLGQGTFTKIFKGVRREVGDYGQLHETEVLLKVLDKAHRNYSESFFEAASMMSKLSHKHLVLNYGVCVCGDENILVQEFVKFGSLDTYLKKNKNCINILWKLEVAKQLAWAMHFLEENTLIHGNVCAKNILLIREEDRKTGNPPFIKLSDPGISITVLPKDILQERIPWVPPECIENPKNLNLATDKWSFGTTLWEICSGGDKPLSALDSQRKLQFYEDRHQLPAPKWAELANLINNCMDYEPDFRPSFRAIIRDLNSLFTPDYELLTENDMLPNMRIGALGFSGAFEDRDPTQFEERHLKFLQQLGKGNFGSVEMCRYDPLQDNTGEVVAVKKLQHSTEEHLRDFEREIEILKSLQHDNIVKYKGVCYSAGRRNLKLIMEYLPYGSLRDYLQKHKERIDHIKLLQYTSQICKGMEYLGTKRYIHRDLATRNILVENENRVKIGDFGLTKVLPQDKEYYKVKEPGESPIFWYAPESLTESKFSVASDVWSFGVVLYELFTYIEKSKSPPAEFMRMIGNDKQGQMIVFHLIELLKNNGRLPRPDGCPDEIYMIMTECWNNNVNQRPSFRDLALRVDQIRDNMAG", "experiment": "hJAK2 LANCE TR-FRET enzymatic assay", "format": "biochemical", "details": "read-out: JAK2 IC50", "units": {"IC50": "nM"}}
{"molecule": "N#Cc1cc(-c2ncnc(Nc3ccc(N4CCN(C5COC5)CC4)cc3)n2)ccc1OC1CCN(C(=O)CO)CC1(F)F", "note": "(racemic) [Example 151, 2-((3,3-difluoro-1-(2-hydroxyacetyl)piperidin-4-yl)oxy)-5-(4-((4-(4-(oxetan-3-yl)piperazin-1-yl)phenyl)amino)-1,3,5-triazin-2-yl)benzonitrile]", "IC50": 122}
{"molecule": "CC1(C)CN(C(=O)CO)CCC1Oc1ccc(-c2ncnc(Nc3ccc(N4CCN(C5COC5)CC4)cc3)n2)cc1C#N", "note": "(racemic) [Example 174, 2-((1-(2-hydroxyacetyl)-3,3-dimethylpiperidin-4-yl)oxy)-5-(4-((4-(4-(oxetan-3-yl)piperazin-1-yl)phenyl)amino)-1,3,5-triazin-2-yl)benzonitrile]", "IC50": 160}
{"molecule": "N#Cc1cc(-c2ncnc(Nc3ccc(N4CCN(C5COC5)CC4)cc3)n2)ccc1O[C@H]1CCN(C(=O)CO)CC1(F)F", "note": "(single isomer, unassigned) [Example 152]", "IC50": 75}
{"molecule": "N#Cc1cc(-c2ncnc(Nc3ccc(N4CCN(C5COC5)CC4)cc3)n2)ccc1O[C@@H]1CCN(C(=O)CO)CC1(F)F", "note": "(single isomer, unassigned) [Example 153]", "IC50": 56}
{"molecule": "CC1(C)CN(C(=O)CO)CC[C@@H]1Oc1ccc(-c2ncnc(Nc3ccc(N4CCN(C5COC5)CC4)cc3)n2)cc1C#N", "note": "(single isomer, unassigned) [Example 175]", "IC50": 397}
{"molecule": "CC1(C)CN(C(=O)CO)CC[C@H]1Oc1ccc(-c2ncnc(Nc3ccc(N4CCN(C5COC5)CC4)cc3)n2)cc1C#N", "note": "(single isomer, unassigned) [Example 176]", "IC50": 133}
{"molecule": "COc1cc(Nc2ncnc(-c3ccc(OC4CCOCC4)c(C#N)c3)n2)ccc1N1CCN(C)CC1", "note": "[Example 4, 5-(4-((3-methoxy-4-(4-methylpiperazin-1-yl)phenyl)amino)-1,3,5-triazin-2-yl)-2-((tetrahydro-2H-pyran-4-yl)oxy)benzonitrile]", "IC50": 53}
{"molecule": "CN1CCN(c2ccc(Nc3ncnc(-c4ccc(OC5CCOCC5)c(C#N)c4)n3)cc2)CC1", "note": "[Example 12, 5-(4-((4-(4-methylpiperazin-1-yl)phenyl)amino)-1,3,5-triazin-2-yl)-2-((tetrahydro-2H-pyran-4-yl)oxy)benzonitrile]", "IC50": 162}
{"molecule": "Cc1n[nH]c(C)c1C(=O)N1CC[C@H](Oc2ccc(-c3ncnc(Nc4ccc(N5CCN(C6COC6)CC5)cc4)n3)cc2C#N)[C@H](F)C1", "note": "[Example 135, 2-(((3R,4S)-1-(3,5-dimethyl-1H-pyrazole-4-carbonyl)-3-fluoropiperidin-4-yl)oxy)-5-(4-((4-(4-(oxetan-3-yl)piperazin-1-yl)phenyl)amino)-1,3,5-triazin-2-yl)benzonitrile]", "IC50": 212}
{"molecule": "N#Cc1cc(-c2ncnc(Nc3ccc(N4CCN(C5COC5)CC4)cc3)n2)ccc1OC1CCN(C(=O)c2ncc[nH]2)CC1(F)F", "note": "(stereo not drawn) [Example 163, 2-((3,3-difluoro-1-(1H-imidazole-2-carbonyl)piperidin-4-yl)oxy)-5-(4-((4-(4-(oxetan-3-yl)piperazin-1-yl)phenyl)amino)-1,3,5-triazin-2-yl)benzonitrile]", "IC50": 248}
{"molecule": "C[C@H](O)C(=O)N1CC[C@@H](Oc2ccc(-c3ncnc(Nc4ccc(N5CCN(C6COC6)CC5)cc4)n3)cc2C#N)[C@H](F)C1", "note": "[Example 234, 2-(((3R,4R)-3-fluoro-1-((S)-2-hydroxypropanoyl)piperidin-4-yl)oxy)-5-(4-((4-(4-(oxetan-3-yl)piperazin-1-yl)phenyl)amino)-1,3,5-triazin-2-yl)benzonitrile]", "IC50": 669}
{"molecule": "C[C@H](O)C(=O)N1CC[C@H](Oc2ccc(-c3ncnc(Nc4ccc(N5CCN(C6COC6)CC5)cc4)n3)cc2C#N)[C@H](F)C1", "note": "[Example 238, 2-(((3R,4S)-3-fluoro-1-((8)-2-hydroxypropanoyl)piperidin-4-yl)oxy)-5-(4-((4-(4-(oxetan-3-yl)piperazin-1-yl)phenyl)amino)-1,3,5-triazin-2-yl)benzonitrile]", "IC50": 445}
{"molecule": "N#Cc1cc(-c2ncnc(Nc3ccc(N4CCN(C5COC5)CC4)cc3)n2)ccc1O[C@H]1CCN(C(=O)c2cc(Cl)n[nH]2)C[C@H]1F", "note": "[Example 324, 2-(((3R,4S)-1-(3-chloro-1H-pyrazole-5-carbonyl)-3-fluoropiperidin-4-yl)oxy)-5-(4-((4-(4-(oxetan-3-yl)piperazin-1-yl)phenyl)amino)-1,3,5-triazin-2-yl)benzonitrile]", "IC50": 237}
{"molecule": "C[C@H](O)C(=O)N1CC[C@H](Oc2ccc(-c3ncnc(Nc4ccc(N5CCN(C6COC6)CC5)c(Cl)c4)n3)cc2C#N)[C@H](F)C1", "note": "[Example 378, 5-(4-((3-chloro-4-(4-(oxetan-3-yl)piperazin-1-yl)phenyl)amino)-1,3,5-triazin-2-yl)-2-(((3R,4S)-3-fluoro-1-((S)-2-hydroxypropanoyl)piperidin-4-yl)oxy)benzonitrile]", "IC50": 173}
{"molecule": "C[C@H]1CN(C2COC2)CCN1c1ccc(Nc2ncnc(-c3ccc(O[C@H]4CCN(C(=O)[C@@H]5CCC(=O)N5)C[C@H]4F)c(C#N)c3)n2)cc1", "note": "[Example 381, 2-(((3R,4S)-3-fluoro-1-((S)-5-oxopyrrolidine-2-carbonyl)piperidin-4-yl)oxy)-5-(4-((4-((S)-2-methyl-4-(oxetan-3-yl)piperazin-1-yl)phenyl)amino)-1,3,5-triazin-2-yl)benzonitrile]", "IC50": "≥ 1000"}
{"molecule": "C[C@H](O)C(=O)N1CC[C@H](Oc2ccc(-c3ncnc(Nc4ccc(O[C@H]5CCN(C6COC6)C[C@H]5F)cc4)n3)cc2C#N)[C@H](F)C1", "note": "[Example 401, 2-(((3R,4S)-3-fluoro-1-((S)-2-hydroxypropanoyl)piperidin-4-yl)oxy)-5-(4-((4-(((3R,4S)-3-fluoro-1-(oxetan-3-yl)piperidin-4-yl)oxy)phenyl)amino)-1,3,5-triazin-2-yl)benzonitrile]", "IC50": "≥ 1000"}
{"molecule": "N#Cc1cc(-c2ncnc(Nc3ccc(N4CCN(C5COC5)CC4)cc3)n2)ccc1O[C@H]1CCN(C(=O)[C@@H]2C[C@@H](O)C(=O)N2)C[C@H]1F", "note": "[Example 403, 2-(((3R,4S)-3-fluoro-1-((2S,4R)-4-hydroxy-5-oxopyrrolidine-2-carbonyl)piperidin-4-yl)oxy)-5-(4-((4-(4-(oxetan-3-yl)piperazin-1-yl)phenyl)amino)-1,3,5-triazin-2-yl)benzonitrile]", "IC50": 858}
{"molecule": "N#Cc1cc(-c2ncnc(Nc3ccc(N4CCN(C5COC5)CC4)cc3)n2)ccc1O[C@H]1CCN(C(=O)[C@@H]2C[C@@H](F)C(=O)N2)C[C@H]1F", "note": "[Example 405, 2-(((3R,4S)-3-fluoro-1-((2S,4R)-4-fluoro-5-oxopyrrolidine-2-carbonyl)piperidin-4-yl)oxy)-5-(4-((4-(4-(oxetan-3-yl)piperazin-1-yl)phenyl)amino)-1,3,5-triazin-2-yl)benzonitrile]", "IC50": "≥ 1000"}
{"molecule": "N#Cc1cc(-c2ncnc(Nc3ccc(N4CCN(C5COC5)CC4)cc3)n2)ccc1O[C@H]1CCN(C(=O)[C@@H]2C[C@H](F)C(=O)N2)C[C@H]1F", "note": "[Example 406, 2-(((3R,4S)-3-fluoro-1-((2S,4S)-4-fluoro-5-oxopyrrolidine-2-carbonyl)piperidin-4-yl)oxy)-5-(4-((4-(4-(oxetan-3-yl)piperazin-1-yl)phenyl)amino)-1,3,5-triazin-2-yl)benzonitrile]", "IC50": "≥ 1000"}
{"molecule": "N#Cc1cc(-c2ncnc(Nc3ccc(N4CCN(C5COC5)CC4)cc3)n2)ccc1O[C@H]1CCN(C(=O)[C@@H]2C[C@H](O)C(=O)N2)C[C@H]1F", "note": "[Example 410, 2-(((3R,4S)-3-fluoro-1-((2S,4S)-4-hydroxy-5-oxopyrrolidine-2-carbonyl)piperidin-4-yl)oxy)-5-(4-((4-(4-(oxetan-3-yl)piperazin-1-yl)phenyl)amino)-1,3,5-triazin-2-yl)benzonitrile]", "IC50": 450}
{"biological_target": "TBK1 (Homo sapiens (Human), UniProt Q9UHD2)", "sequence (Q9UHD2 whole entry)": "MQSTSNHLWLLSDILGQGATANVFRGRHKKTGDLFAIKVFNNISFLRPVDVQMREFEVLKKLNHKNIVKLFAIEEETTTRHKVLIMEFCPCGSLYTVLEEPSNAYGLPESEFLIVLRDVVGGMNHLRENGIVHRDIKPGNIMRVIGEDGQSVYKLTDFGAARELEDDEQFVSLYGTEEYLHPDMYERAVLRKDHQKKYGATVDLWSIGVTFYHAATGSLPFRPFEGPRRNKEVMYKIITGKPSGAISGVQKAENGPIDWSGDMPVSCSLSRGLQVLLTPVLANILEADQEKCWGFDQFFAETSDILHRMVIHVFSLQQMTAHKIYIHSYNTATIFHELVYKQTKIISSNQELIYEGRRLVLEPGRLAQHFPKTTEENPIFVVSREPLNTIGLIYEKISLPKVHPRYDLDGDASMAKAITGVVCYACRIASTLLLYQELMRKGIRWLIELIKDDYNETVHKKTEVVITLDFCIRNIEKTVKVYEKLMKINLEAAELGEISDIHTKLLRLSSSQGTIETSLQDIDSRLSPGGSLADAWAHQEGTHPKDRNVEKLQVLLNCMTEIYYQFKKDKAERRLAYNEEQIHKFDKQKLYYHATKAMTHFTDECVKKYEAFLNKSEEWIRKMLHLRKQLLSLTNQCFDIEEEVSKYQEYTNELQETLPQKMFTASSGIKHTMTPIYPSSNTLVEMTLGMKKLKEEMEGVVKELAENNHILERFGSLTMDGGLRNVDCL", "experiment": "TBK1 TR-FRET enzymatic assay;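 note: phosphorylation of a biotinylated Ser/Thr peptide by purified full-length recombinant TBK1, read by TR-FRET after 240 min at 25 °C, IC50 is the geometric mean of at least four runs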", "details": "not given", "units": {"IC50": "nM"}}
{"molecule": "N#Cc1cc(-c2ncnc(Nc3ccc(C4CCNCC4)cc3)n2)ccc1O[C@H]1CCCC[C@H]1F", "note": "(racemic) [Example 292, rac-2-(((1S,2R)-2-fluorocyclohexyl)oxy)-5-(4-((4-(piperidin-4-yl)phenyl)amino)-1,3,5-triazin-2-yl)benzonitrile]", "IC50": 6}
{"molecule": "C[C@H](O)C(=O)N1CC[C@@H](Oc2ccc(-c3ncnc(Nc4ccc(N5CCN(C6COC6)CC5)cc4)n3)cc2C#N)C1", "note": "[Example 88, 2-(((R)-1-((S)-2-hydroxypropanoyl)pyrrolidin-3-yl)oxy)-5-(4-((4-(4-(oxetan-3-yl)piperazin-1-yl)phenyl)amino)-1,3,5-triazin-2-yl)benzonitrile]", "IC50": 26}
{"molecule": "C[C@@H](O)C(=O)N1CC[C@@H](Oc2ccc(-c3ncnc(Nc4ccc(N5CCN(C6COC6)CC5)cc4)n3)cc2C#N)C1", "note": "[Example 91, 2-(((R)-1-((R)-2-hydroxypropanoyl)pyrrolidin-3-yl)oxy)-5-(4-((4-(4-(oxetan-3-yl)piperazin-1-yl)phenyl)amino)-1,3,5-triazin-2-yl)benzonitrile]", "IC50": 145}
{"molecule": "N#Cc1cc(-c2ncnc(Nc3ccc(N4CCN(C5COC5)CC4)cc3)n2)ccc1O[C@@H]1CN(C(=O)CO)C[C@@H]1F", "note": "[Example 101, 2-(((3R,4S)-4-fluoro-1-(2-hydroxyacetyl)pyrrolidin-3-yl)oxy)-5-(4-((4-(4-(oxetan-3-yl)piperazin-1-yl)phenyl)amino)-1,3,5-triazin-2-yl)benzonitrile]", "IC50": 14}
{"molecule": "N#Cc1cc(-c2ncnc(Nc3ccc4c(c3)OC(F)(F)O4)n2)ccc1OC1CCOCC1", "note": "[Example 275, 5-(4-((2,2-difluorobenzo[d][1,3]dioxol-5-yl)amino)-1,3,5-triazin-2-yl)-2-((tetrahydro-2H-pyran-4-yl)oxy)benzonitrile]", "IC50": 115}
{"molecule": "N#Cc1cc(-c2ncnc(Nc3ccc(N4CCN(C5CCOCC5)CC4)cc3)n2)ccc1O[C@H]1CCN(C(=O)CO)C[C@H]1F", "note": "[Example 306, 2-(((3R,4S)-3-fluoro-1-(2-hydroxyacetyl)piperidin-4-yl)oxy)-5-(4-((4-(4-(tetrahydro-2H-pyran-4-yl)piperazin-1-yl)phenyl)amino)-1,3,5-triazin-2-yl)benzonitrile]", "IC50": 2}
{"molecule": "C[C@H](O)C(=O)N1CC[C@H](Oc2ccc(-c3ncnc(Nc4ccc(C5CCN(C6COC6)CC5)cc4)n3)cc2C#N)[C@H](F)C1", "note": "[Example 311, 2-(((3R,4S)-3-fluoro-1-((S)-2-hydroxypropanoyl)piperidin-4-yl)oxy)-5-(4-((4-(1-(oxetan-3-yl)piperidin-4-yl)phenyl)amino)-1,3,5-triazin-2-yl)benzonitrile]", "IC50": 3}
